The values below come from US20180250280A1 (BAYER PHARMA AKTIENGESELLSCHAFT, priority 2015, published 2018).

In assay [1] the target is T1, human factor XIa (Homo sapiens, UniProt P03951).
T1 construct: purchased Kordia
The assay is described as follows: Measurement of FXIa inhibition (fluorogenic peptide substrate, AMC cleavage). The conditions noted are these: factor XIa from Kordia 0.45 nM; substrate Boc-Glu(OBzl)-Ala-Arg-AMC 10 μM; 30 min at 22° C.; in some cases averages from multiple determinations. It counts as biochemical. As for the experimental part:
The factor XIa inhibition of the substances according to the invention is determined using a biochemical test system which utilizes the reaction of a peptidic factor XIa substrate to determine the enzymatic activity of human factor XIa. Here, factor XIa cleaves from the peptic factor XIa substrate the C-terminal aminomethylcoumarin (AMC), the fluorescence of which is measured. The determinations are conducted in microtitre plates.
Test substances are dissolved in dimethyl sulfoxide and serially diluted in dimethyl sulfoxide (3000 μM to 0.0078 μM; resulting final concentrations in the test: 50 μM to 0.00013 μM). 1 μl of the diluted substance solutions is placed into each of the wells of white microtitre plates from Greiner (384 wells). 20 μl of assay buffer (50 mM of Tris/HCl pH 7.4; 100 mM of sodium chloride; 5 mM of calcium chloride; 0.1% of bovine serum albumin) and 20 μl of factor XIa from Kordia (0.45 nM in assay buffer) are then added successively. After 15 min of incubation, the enzyme reaction is started by addition of 20 μl of the factor XIa substrate Boc-Glu(OBzl)-Ala-Arg-AMC dissolved in assay buffer (10 μM in assay buffer) from Bachem, the mixture is incubated at room temperature (22° C.) for 30 min and fluorescence is then measured (excitation: 360 nm, emission: 460 nm). The measured emissions of the test batches with test substance are compared to those of control batches without test substance (only dimethyl sulfoxide instead of test substance in dimethyl sulfoxide), and IC50 values are calculated from the concentration/activity relationships. Activity data from this test are given in Table A below (in some cases as averages from multiple individual determinations): […]

The target of assay [2] is T2, human plasma kallikrein (Homo sapiens, UniProt P03952).
T2 construct: purchased Kordia
The assay is described as follows: Determination of the plasma kallikrein activity (fluorogenic peptide substrate, AMC cleavage). It counts as biochemical. The conditions noted are these: plasma kallikrein from Kordia 0.6 nM; substrate H-Pro-Phe-Arg-AMC 10 μM; 30 min at 22° C.; in some cases averages from multiple determinations. Here is the method: To determine the plasma kallikrein inhibition of the substances according to the invention, a biochemical test system is used which utilizes the reaction of a peptidic plasma kallikrein substrate to determine the enzymatic activity of human plasma kallikrein. Here, plasma kallikrein cleaves from the peptic plasma kallikrein substrate the C-terminal aminomethylcoumarin (AMC), the fluorescence of which is measured. The determinations are conducted in microtitre plates.
Test substances are dissolved in dimethyl sulfoxide and serially diluted in dimethyl sulfoxide (3000 μM to 0.0078 μM; resulting final concentrations in the test: 50 μM to 0.00013 μM). 1 μl of the diluted substance solutions is placed into each of the wells of white microtitre plates from Greiner (384 wells). 20 μl of assay buffer (50 mM Tris/HCl pH 7.4; 100 mM sodium chloride solution; 5 mM calcium chloride solution; 0.1% of bovine serum albumin) and 20 μl of plasma kallikrein from Kordia (0.6 nM in assay buffer) are then added successively. After 15 min of incubation, the enzyme reaction is started by addition of 20 μl of the substrate H-Pro-Phe-Arg-AMC dissolved in assay buffer (10 μM in assay buffer) from Bachem, the mixture is incubated at room temperature (22° C.) for 30 min and fluorescence is then measured (excitation: 360 nm, emission: 460 nm). The measured emissions of the test batches with test substance are compared to those of control batches without test substance (only dimethyl sulfoxide instead of test substance in dimethyl sulfoxide), and IC50 values are calculated from the concentration/activity relationships. Activity data from this test are given in Table B below (in some cases as averages from multiple individual determinations): […]

T1 sequence (P03951 388-625 limits assumed): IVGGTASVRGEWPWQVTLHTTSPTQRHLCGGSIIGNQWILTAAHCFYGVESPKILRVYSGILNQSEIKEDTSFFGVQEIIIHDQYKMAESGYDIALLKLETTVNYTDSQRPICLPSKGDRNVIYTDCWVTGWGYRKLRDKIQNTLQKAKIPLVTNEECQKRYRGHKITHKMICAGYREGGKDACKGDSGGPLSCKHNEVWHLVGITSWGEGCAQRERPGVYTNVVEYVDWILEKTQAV
T1 sequence (P03951 19-387 partner limits assumed): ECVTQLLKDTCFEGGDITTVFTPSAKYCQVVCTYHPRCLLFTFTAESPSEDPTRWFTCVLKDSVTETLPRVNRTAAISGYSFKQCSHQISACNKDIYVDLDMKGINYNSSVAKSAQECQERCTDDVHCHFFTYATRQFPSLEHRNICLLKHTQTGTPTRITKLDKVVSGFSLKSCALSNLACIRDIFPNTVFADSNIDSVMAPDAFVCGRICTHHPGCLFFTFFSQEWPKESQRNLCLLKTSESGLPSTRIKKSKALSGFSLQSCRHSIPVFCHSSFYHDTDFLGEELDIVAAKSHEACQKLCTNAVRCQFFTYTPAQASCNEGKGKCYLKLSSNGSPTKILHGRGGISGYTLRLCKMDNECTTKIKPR
T2 sequence (P03952 391-638 limits assumed): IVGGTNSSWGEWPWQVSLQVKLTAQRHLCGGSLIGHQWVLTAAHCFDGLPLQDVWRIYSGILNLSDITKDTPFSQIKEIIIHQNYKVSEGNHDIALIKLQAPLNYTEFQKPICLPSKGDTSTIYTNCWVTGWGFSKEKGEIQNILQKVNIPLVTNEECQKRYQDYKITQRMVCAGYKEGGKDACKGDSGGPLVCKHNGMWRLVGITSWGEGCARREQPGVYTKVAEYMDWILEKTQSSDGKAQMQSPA
T2 sequence (P03952 20-390 partner limits assumed): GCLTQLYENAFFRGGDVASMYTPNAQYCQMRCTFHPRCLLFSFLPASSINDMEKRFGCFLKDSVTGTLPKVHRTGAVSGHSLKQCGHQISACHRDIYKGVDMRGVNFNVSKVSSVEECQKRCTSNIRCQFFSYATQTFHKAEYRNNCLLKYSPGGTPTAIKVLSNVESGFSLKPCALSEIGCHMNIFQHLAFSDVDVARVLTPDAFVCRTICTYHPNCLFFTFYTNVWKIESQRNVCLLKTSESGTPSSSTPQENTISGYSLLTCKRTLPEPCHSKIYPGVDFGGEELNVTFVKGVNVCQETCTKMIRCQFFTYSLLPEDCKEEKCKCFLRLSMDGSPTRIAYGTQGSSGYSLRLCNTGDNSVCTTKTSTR

`COc1cn([C@@H](CCOC(C)(C)C)C(=O)Nc2ccc(C(=O)O)s2)c(=O)cc1-c1cc(Cl)ccc1OCC(F)(F)F` (single isomer, unassigned) [Example 69, 5-{[4-tert-Butoxy-2-{4-[5-chloro-2-(2,2,2-trifluoroethoxy)phenyl]-5-methoxy-2-oxopyridin-1(2H)-yl}butanoyl]amino}thiophene-2-carboxylic acid]: the IC50 came out at 0.88 nM in assay [1] and 8.9 nM in assay [2].
Consider `COc1cn(C(C[C@H](C)OC)C(=O)Nc2ccc(C(=O)O)cc2)c(=O)cc1-c1cc(Cl)ccc1OCC(F)(F)F` (mixture of isomers) [Example 35, 4-{[(4S)-2-{4-[5-Chloro-2-(2,2,2-trifluoroethoxy)phenyl]-5-methoxy-2-oxopyridin-1(2H)-yl}-4-methoxypentanoyl]amino}benzoic acid], for which the IC50 in assay [1] is 2.4 nM; in assay [2], 130 nM.
For `COc1cn(C(C[C@H](C)OC)C(=O)Nc2ccc3nn(C)cc3c2)c(=O)cc1-c1cc(Cl)ccc1OCC(F)(F)F` (mixture of isomers) [Example 37, (4S)-2-{4-[5-Chloro-2-(2,2,2-trifluoroethoxy)phenyl]-5-methoxy-2-oxopyridin-1(2H)-yl}-4-methoxy-N-(2-methyl-2H-indazol-5-yl)pentanamide], the IC50 is 7.9 nM in assay [1] and 72 nM in assay [2].
For `CNC(=O)c1ccc(NC(=O)C(CC2COCCO2)n2cc(OC)c(-c3cc(Cl)ccc3OCCF)cc2=O)cn1` (stereo not drawn) [Example 46, 5-{[2-{4-[5-Chloro-2-(2-fluoroethoxy)phenyl]-5-methoxy-2-oxopyridin-1(2H)-yl}-3-(1,4-dioxan-2-yl)propanoyl]amino}-N-methylpyridine-2-carboxamide], the IC50 in assay [1] amounted to 8.9 nM; in assay [2], 150 nM.
In the same order, the values of `CCCC(C(=O)Nc1ccc(C(=O)O)cc1)n1cc(OC)c(-c2cc(Cl)ccc2OCC(F)(F)F)cc1=O` (racemic) [Example 67, 4-{[2-{4-[5-Chloro-2-(2,2,2-trifluoroethoxy)phenyl]-5-methoxy-2-oxopyridin-1(2H)-yl}pentanoyl]amino}benzoic acid] are 2.8 nM and 140 nM.
For `CCNC(=O)c1ccc(NC(=O)C(CCOC2(C)CCC2)n2cc(OC)c(-c3cc(Cl)ccc3OCC(F)(F)F)cc2=O)cn1` (racemic) [Example 61, 5-[[2-[4-[5-Chloro-2-(2,2,2-trifluoroethoxy)phenyl]-5-methoxy-2-oxo-1-pyridyl]-4-(1-methylcyclobutoxy)butanoyl]amino]-N-ethylpyridine-2-carboxamide], the IC50 in assay [1] worked out at 43 nM; in assay [2], 150 nM.
As to `COCCC(C(=O)Nc1ccc(C(=O)O)cc1)n1cc(OC)c(-c2cc(Cl)ccc2OCC(F)(F)F)cc1=O` (racemic) [Example 1, 4-[(2-{4-[5-Chloro-2-(2,2,2-trifluoroethoxy)phenyl]-5-methoxy-2-oxopyridin-1(2H)-yl}-4-methoxybutanoyl)amino]benzoic acid], the figures for the IC50 in assay [1] and in assay [2] were 1.2 nM and 55 nM, respectively.
Turning to `COc1cn(C(CC2COCCO2)C(=O)Nc2ccc3nn(C)cc3c2)c(=O)cc1-c1cc(Cl)ccc1OCCF` (stereo not drawn) [Example 48, 2-{4-[5-Chloro-2-(2-fluoroethoxy)phenyl]-5-methoxy-2-oxopyridin-1(2H)-yl}-3-(1,4-dioxan-2-yl)-N-(2-methyl-2H-indazol-5-yl)propanamide], the IC50 in assay [1] worked out at 15 nM; in assay [2], 150 nM.
In the same order, the values of `COc1cn(C(CC2COCCO2)C(=O)Nc2ccc(C(=O)O)cc2)c(=O)cc1-c1cc(Cl)ccc1OCC(F)(F)F` (single isomer, unassigned) [Example 62, 4-{[2-{4-[5-Chloro-2-(2,2,2-trifluoroethoxy)phenyl]-5-methoxy-2-oxopyridin-1(2H)-yl}-3-(1,4-dioxan-2-yl)propanoyl]amino}benzoic acid] are 0.52 nM and 15 nM.
Turning to `COc1cn(C(CCOC(C)C)C(=O)Nc2ccc(C(=O)O)cc2)c(=O)cc1-c1cc(Cl)ccc1OCC(F)(F)F` (racemic) [Example 34, 4-[(2-{4-[5-Chloro-2-(2,2,2-trifluoroethoxy)phenyl]-5-methoxy-2-oxopyridin-1(2H)-yl}-4-isopropoxybutanoyl)amino]benzoic acid], the IC50 was determined as 1.9 nM in assay [1] and 45 nM in assay [2].
In the case of `COc1cn(C(Cc2ccn(C)n2)C(=O)Nc2ccc(C(=O)O)cc2)c(=O)cc1-c1cc(Cl)ccc1OCC(F)(F)F` (racemic) [Example 13, 4-{[2-{4-[5-Chloro-2-(2,2,2-trifluoroethoxy)phenyl]-5-methoxy-2-oxopyridin-1(2H)-yl}-3-(1-methyl-1H-pyrazol-3-yl)propanoyl]amino}benzoic acid], the IC50 in assay [1] turned out to be 1.3 nM; in assay [2], 14 nM.
With `COc1cn(C(CCOC(C)(C)C)C(=O)Nc2ccc3nn(C)cc3c2)c(=O)cc1-c1cc(Cl)ccc1OCC(F)F` (racemic) [Example 28, 4-tert-Butoxy-2-{4-[5-chloro-2-(2,2-difluoroethoxy)phenyl]-5-methoxy-2-oxopyridin-1(2H)-yl}-N-(2-methyl-2H-indazol-5-yl)butanamide], the figures for the IC50 in assay [1] and in assay [2] were 28 nM and 120 nM, respectively.
For the compound `CNC(=O)c1ccc(NC(=O)C(Cc2ccn(C)n2)n2cc(OC)c(-c3cc(Cl)ccc3OCC(F)(F)F)cc2=O)cn1` (racemic) [Example 15, 5-{[2-{4-[5-Chloro-2-(2,2,2-trifluoroethoxy)phenyl]-5-methoxy-2-oxopyridin-1(2H)-yl}-3-(1-methyl-1H-pyrazol-3-yl)propanoyl]amino}-N-methylpyridine-2-carboxamide], the IC50 in assay [1] amounted to 6.4 nM; in assay [2], 35 nM.
For `COc1cc(NC(=O)[C@H](CCOC(C)(C)C)n2cc(OC)c(-c3cc(Cl)ccc3OCC(F)(F)F)cc2=O)ccc1C(=O)O` (single isomer, unassigned) [Example 70, 4-{[4-tert-Butoxy-2-{4-[5-chloro-2-(2,2,2-trifluoroethoxy)phenyl]-5-methoxy-2-oxopyridin-1(2H)-yl}butanoyl]amino}-2-methoxybenzoic acid], the IC50 was determined as 1.3 nM in assay [1] and 58 nM in assay [2].
Turning to `CNC(=O)c1ccc(NC(=O)C(C[C@H](C)OC)n2cc(OC)c(-c3cc(Cl)ccc3OCC(F)(F)F)cc2=O)cn1` (mixture of isomers) [Example 36, 5-{[(4S)-2-{4-[5-Chloro-2-(2,2,2-trifluoroethoxy)phenyl]-5-methoxy-2-oxopyridin-1(2H)-yl}-4-methoxypentanoyl]amino}-N-methylpyridine-2-carboxamide], the IC50 was 6.2 nM in assay [1] and 70 nM in assay [2].
Turning to `CCCC(C(=O)Nc1ccc2nn(C)cc2c1)n1cc(OC)c(-c2cc(Cl)ccc2OCC(F)(F)F)cc1=O` (racemic) [Example 65, 2-{4-[5-Chloro-2-(2,2,2-trifluoroethoxy)phenyl]-5-methoxy-2-oxopyridin-1(2H)-yl}-N-(2-methyl-2H-indazol-5-yl)pentanamide], the results for the IC50 in assay [1] and in assay [2] were 40 nM and 140 nM, respectively.
For the compound `COc1cn(C(CCOC(C)(C)C)C(=O)Nc2ccc(C(N)=O)c(F)c2)c(=O)cc1-c1cc(Cl)ccc1OCC(F)(F)F` (racemic) [Example 10, 4-[(4-tert-Butoxy-2-{4-[5-chloro-2-(2,2,2-trifluoroethoxy)phenyl]-5-methoxy-2-oxopyridin-1(2H)-yl}butanoyl)amino]-2-fluorobenzamide], the IC50 in assay [1] is 15 nM; in assay [2], 77 nM.
On to `CNC(=O)c1ccc(NC(=O)C(CCOC2(C)CCC2)n2cc(OC)c(-c3cc(Cl)ccc3OCC(F)(F)F)cc2=O)cn1` (racemic) [Example 57, 5-[[2-[4-[5-Chloro-2-(2,2,2-trifluoroethoxy)phenyl]-5-methoxy-2-oxo-1-pyridyl]-4-(1-methylcyclobutoxy)butanoyl]amino]-N-methylpyridine-2-carboxamide], for which the IC50 in assay [1] was determined as 14 nM; in assay [2] it was 54 nM.

By IC50 is commonly meant the midpoint of a concentration-inhibition curve. Higher therefore signals lower potency.
